Key:
Assay in all cases: relative viability (nuclei count vs DMSO), 5 days (fraction); higher = more cells survive
CUDC-101 + Trametinib = compound: C#Cc1cccc(Nc2ncnc3cc(OC)c(OCCCCCCC(=O)NO)cc23)c1 [CUDC-101] + CC(=O)Nc1cccc(-n2c(=O)n(C3CC3)c(=O)c3c(Nc4ccc(I)cc4F)n(C)c(=O)c(C)c32)c1 [Trametinib] (partner 0.02 µM)
How it was run: (§1)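 Lung cancer cell lines, seeded in 1536-well plates, were treated the following day by pin tool with a single drug or with five library-drug doses (not always all listed) in √10 steps on top of a fixed anchor-drug dose. Cells were fixed and nuclei stained in one step after 5 days, and nuclei were counted. Relative viability is the nuclei count for treated wells divided by that for vehicle wells, reported as medians of duplicate plates.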

CUDC-101 + Lapatinib = compound: C#Cc1cccc(Nc2ncnc3cc(OC)c(OCCCCCCC(=O)NO)cc23)c1 [CUDC-101] + CS(=O)(=O)CCNCc1ccc(-c2ccc3ncnc(Nc4ccc(OCc5cccc(F)c5)c(Cl)c4)c3c2)o1 [Lapatinib] (partner 2 µM)
How it was run: as §1

Vandetanib + OSI-027 = compound: COc1cc2/c(=N/c3ccc(Br)cc3F)nc[nH]c2cc1OCC1CCN(C)CC1 [Vandetanib] + COc1cccc2cc(-c3nc([C@H]4CC[C@H](C(=O)O)CC4)n4ncnc(N)c34)[nH]c12 [OSI-027] (partner 0.5 µM)
How it was run: as §1

Vandetanib + Dasatinib = compound: COc1cc2/c(=N/c3ccc(Br)cc3F)nc[nH]c2cc1OCC1CCN(C)CC1 [Vandetanib] + Cc1nc(Nc2ncc(C(=O)Nc3c(C)cccc3Cl)s2)cc(N2CCN(CCO)CC2)n1 [Dasatinib] (partner 0.075 µM)
How it was run: as §1

Cell Line	relative viability (CUDC-101 + Trametinib; first compound 0.01 µM)	relative viability (CUDC-101 + Trametinib; first compound 0.03162 µM)	relative viability (CUDC-101 + Trametinib; first compound 0.1 µM)	relative viability (CUDC-101 + Trametinib; first compound 0.3162 µM)	relative viability (CUDC-101 + Trametinib; first compound 1 µM)	relative viability (CUDC-101 + Lapatinib; first compound 0.01 µM)	relative viability (CUDC-101 + Lapatinib; first compound 0.03162 µM)	relative viability (CUDC-101 + Lapatinib; first compound 0.1 µM)	relative viability (CUDC-101 + Lapatinib; first compound 0.3162 µM)	relative viability (CUDC-101 + Lapatinib; first compound 1 µM)	relative viability (Vandetanib + OSI-027; first compound 0.02 µM)	relative viability (Vandetanib + OSI-027; first compound 0.06325 µM)	relative viability (Vandetanib + OSI-027; first compound 0.2 µM)	relative viability (Vandetanib + OSI-027; first compound 0.6325 µM)	relative viability (Vandetanib + OSI-027; first compound 2 µM)	relative viability (Vandetanib + Dasatinib; first compound 0.02 µM)	relative viability (Vandetanib + Dasatinib; first compound 0.06325 µM)	relative viability (Vandetanib + Dasatinib; first compound 0.2 µM)	relative viability (Vandetanib + Dasatinib; first compound 0.6325 µM)	relative viability (Vandetanib + Dasatinib; first compound 2 µM)
NCI-H358	0.142	0.135	0.119	0.143	0.115	0.553	0.397	0.517	0.489	0.29	0.706	0.569	0.678	0.504	0.307	0.131	0.201	0.161	0.136	0.124
LK-2	0.715	0.625	0.884	0.592	0.392	0.981	0.888	0.973	0.887	0.559	0.243	0.213	0.203	0.197	0.227	0.261	0.24	0.295	0.239	0.221
EPLC-272H	0.279	0.258	0.26	0.265	0.229	1.13	0.987	1	0.392	0.482	0.319	–	0.305	0.286	0.265	0.301	–	0.415	0.352	0.321
A-427	0.763	0.743	0.736	0.733	0.461	0.933	1.04	1	0.914	1.01	0.542	0.486	0.53	0.481	0.432	0.721	0.697	0.638	0.704	0.702
NCI-H1755	0.794	0.761	0.784	0.792	0.812	1.09	1.04	1.02	1.1	0.798	0.688	0.649	0.757	0.689	0.672	0.416	0.425	0.446	0.42	0.404
NCI-H838	0.579	0.504	0.544	0.591	0.423	0.934	1	1.03	1.11	0.552	0.409	0.379	0.37	0.333	0.424	0.278	0.286	0.341	0.29	0.27
NCI-H2228	0.553	0.467	0.486	0.912	0.537	1.06	1.49	1.12	0.977	0.412	0.651	0.42	0.744	0.422	0.631	0.464	0.478	0.503	0.463	0.481
NCI-H1793	0.331	0.347	0.349	0.427	0.44	0.813	0.63	0.731	0.718	0.485	0.302	0.25	0.238	0.292	0.274	0.448	0.353	0.387	0.381	0.391
NCI-H661	0.566	0.529	0.609	0.542	0.374	0.603	0.449	0.525	0.594	0.506	0.721	0.66	0.668	0.58	0.629	0.988	0.856	0.837	0.803	0.874
EKVX	0.353	0.349	0.335	0.407	0.224	0.255	0.199	0.22	0.203	0.169	0.741	0.693	0.723	0.67	0.563	0.547	0.566	0.498	0.602	0.374
NCI-H1650	0.637	0.477	0.494	0.588	0.372	0.833	0.72	0.963	0.772	0.48	0.621	0.436	0.552	0.452	0.439	0.322	0.275	0.322	0.292	0.305
HCC-827	0.53	0.257	0.18	0.183	0.147	0.206	0.181	0.178	0.174	0.218	0.895	0.752	0.707	0.164	0.149	0.489	0.276	0.284	0.152	0.13
NCI-H2170	0.951	0.967	0.883	0.939	0.843	0.27	0.266	0.297	0.227	0.232	0.641	0.673	0.727	0.655	0.811	0.55	0.555	0.487	0.462	0.609
NCI-H1395	1.13	1.05	1.01	1.19	0.981	1.04	1.13	1.05	0.862	0.661	0.614	0.65	0.665	0.526	0.588	0.349	0.373	0.417	0.405	0.444
NCI-H2009	0.307	0.245	0.274	0.34	0.292	0.924	1	1.07	0.925	0.87	0.643	0.6	0.687	0.644	0.59	0.326	0.241	0.329	0.309	0.349
NCI-H1437	0.54	0.528	0.498	0.468	0.263	0.884	0.792	0.773	0.796	0.355	0.835	0.899	0.868	0.886	0.964	0.401	0.45	0.254	0.405	0.222

From the supplement of paper PMC10307832
